Data published in ChEMBL document CHEMBL1944619, “QSAR studies for prediction of cross-β sheet aggregate binding affinity and selectivity” (Bioorg Med Chem, 2012).

Experiment: Displacement of thioflavin-T from amyloid beta (1 to 40) aggregates by thioflavin-T fluorescent dye assay

SMILES	IC50 [nM]
CN(C)c1ccc(/C=C/c2sc3ccccc3[n+]2CCCC2CCCCC2)cc1	120
COc1ccc2nc(/N=N/c3ccc(N(C)C)c4ccccc34)sc2c1	2500
CCCCCCC[n+]1c(/C=C/c2ccc(-n3cccc3)cc2)sc2ccccc21	160
CN(C)c1ccc(/C=C/c2sc3c(Cc4ccccc4)c(Cc4ccccc4)ccc3[n+]2C)cc1	210
CCCCCCC[n+]1c(/C=C/c2ccc(N(CC)CC)cc2)sc2ccccc21	140
CN(C)c1ccc(/C=C/c2nc3cc(Cl)ccc3s2)cc1	> 100000
COc1ccc2c(c1)sc(/C=C/c1ccc(N(C)C)cc1)[n+]2C	300
CN(C)c1ccc(/N=N/c2nc3ccccc3s2)cc1	22000
CN(C)c1ccc(/C=C/c2sc3ccccc3[n+]2CCCC(c2ccccc2)c2ccccc2)cc1	460
CN(C)c1ccc(/C=C/c2nc3ccccc3s2)cc1	> 100000
COc1ccc2nc(/N=N/c3ccc(N(C)C)cc3)sc2c1	3200
CCCCCCC[n+]1c(/C=C/c2ccc(N(C)C)c3ccccc23)sc2ccccc21	160
CN(C)c1ccc(/C=C/c2sc3cc([N+](=O)[O-])ccc3[n+]2C)cc1	1000
CN(C)c1ccc(/N=N/c2sc3ccccc3[n+]2C)cc1	1300
CCCCCCC[n+]1c(/C=C/c2ccc(N(C)C)cc2)sc2ccccc21	93
COc1ccc2c(c1)sc(/N=N/c1ccc(N(C)C)cc1)[n+]2C	410
CCCCCCC[n+]1c(/C=C/c2ccc(N(CCCC)CCCC)cc2)sc2ccccc21	600
COc1ccc2c(c1)sc(/C=C/c1ccc(N(C)C)c3ccccc13)[n+]2C	430
CCCCCCC[n+]1c(/C=C/c2ccc(N(C)C)cc2)sc2cc(OC)ccc21	140
Nc1ccc(/N=N/c2nc3ccccc3s2)c2ccccc12	120
CN(C)c1ccc(/C=C/c2nc3ccc(N(C)C)cc3s2)cc1	> 100000
Cc1ccc2c(c1)sc(/C=C/c1ccc(N(C)C)cc1)[n+]2C	180

Other lines, results leading:

IC50 [nM]	SMILES
120	CN(C)c1ccc(/C=C/c2sc3cc(Cc4ccccc4)c(Cc4ccccc4)cc3[n+]2C)cc1
140	CN(C)c1ccc(/C=C/c2sc3ccccc3[n+]2CCCOCc2ccccc2)cc1
240	CN(C)c1ccc(/C=C/c2sc3ccccc3[n+]2Cc2ccc(-c3ccccc3)cc2)cc1
170	CN(C)c1ccc(/C=C/c2sc3ccccc3[n+]2CCCCCOc2ccccc2)cc1
170	CN(C)c1ccc(/C=C/c2sc3ccc(F)cc3[n+]2Cc2ccccc2)cc1
110	CN(C)c1ccc(/C=C/c2sc3ccccc3[n+]2Cc2ccccc2)cc1
230	CN(C)c1ccc(/C=C/c2sc3ccccc3[n+]2Cc2cccc(OC(=O)c3ccccc3)c2)cc1
100	CN(C)c1ccc(/C=C/c2sc3ccccc3[n+]2Cc2ccccc2-c2ccccc2)cc1
1000	CN(C)c1ccc(/C=C/c2sc3ccc(F)cc3[n+]2C)cc1
160	CCCC[n+]1c(/C=C/c2ccc(N(C)C)cc2)sc2ccccc21
1000	CN(C)c1ccc(/C=C/c2sc3ccccc3[n+]2C)cc1
120	CN(C)c1ccc(/C=C/c2sc3ccccc3[n+]2Cc2ccc(F)cc2)cc1
120	CN(C)c1ccc(/C=C/c2sc3ccccc3[n+]2Cc2cccc(Oc3ccccc3)c2)cc1
400	CC[n+]1c(/C=C/c2ccc(N(C)C)cc2)sc2ccccc21
170	CN(C)c1ccc(/C=C/c2sc3ccccc3[n+]2CCCCCc2ccccc2)cc1
170	CN(C)c1ccc(/C=C/c2sc3ccccc3[n+]2CCCCOc2ccccc2)cc1
400	Cc1ccc2sc(/C=C/c3ccc(N(C)C)cc3)[n+](C)c2c1
100	CN(C)c1ccc(/C=C/c2sc3ccccc3[n+]2C/C=C/c2ccccc2)cc1
430	CN(C)c1ccc(/C=C/c2sc3ccc(Cl)cc3[n+]2C)cc1
210	CN(C)c1ccc(/C=C/c2sc3ccc(Cc4ccccc4)c(Cc4ccccc4)c3[n+]2C)cc1
130	Cc1ccc2c(c1)sc(/C=C/c1ccc(N(C)C)cc1)[n+]2Cc1ccccc1
200	CN(C)c1ccc(/C=C/c2sc3ccccc3[n+]2CCCc2ccccc2)cc1
120	CN(C)c1ccc(/C=C/c2sc3ccccc3[n+]2Cc2ccc3ccccc3c2)cc1
